Reference: US11623924B2, “Modulators of alpha-1 antitrypsin” (Vertex Pharmaceuticals Incorporated, priority 2018, dated 2023)

biological target: T1, NL20 human bronchial epithelial cells expressing human Z-AAT (Homo sapiens, UniProt P01009, E366K); assay: AAT Function Assay (MSD Assay NL20-SI Cell Line); type: cell-based; details: functionally active AAT (AAT-hNE complex) in supernatant of NL20 cells expressing human Z-AAT; read-out: NL20 Func. (EC50)
T1 construct: expressed in transfected cells; host or cells: NL20 human bronchial epithelial cells (NL20-SI line, doxycycline added)
In short: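 NL20 cells expressing Z-AAT, seeded 16,000 cells/well, received compound with doxycycline (0.1 μM final) and were incubated overnight at 37° C. Supernatants, diluted 45-fold in total, reacted with excess human neutrophil elastase; AAT-elastase complex captured on anti-AAT plates, detected with Sulfo-tagged anti-elastase by MSD electrochemiluminescence, and quantified against M-AAT standards (0.156-320 ng/mL).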

T1 sequence (P01009 25-418 E366K): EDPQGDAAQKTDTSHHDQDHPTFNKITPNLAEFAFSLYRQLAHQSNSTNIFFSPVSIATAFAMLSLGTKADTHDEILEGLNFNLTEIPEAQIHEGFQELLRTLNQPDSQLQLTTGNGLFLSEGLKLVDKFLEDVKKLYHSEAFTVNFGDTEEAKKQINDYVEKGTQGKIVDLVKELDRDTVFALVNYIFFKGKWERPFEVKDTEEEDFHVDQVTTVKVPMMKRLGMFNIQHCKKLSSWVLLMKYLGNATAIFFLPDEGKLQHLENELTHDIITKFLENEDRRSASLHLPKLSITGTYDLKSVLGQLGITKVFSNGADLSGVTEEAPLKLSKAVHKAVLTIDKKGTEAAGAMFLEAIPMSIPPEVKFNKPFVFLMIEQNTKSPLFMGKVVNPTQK

| EC50 [µM] | Compound |
| --- | --- |
| 1.16 to 3 | O=C(O)[C@H]1CC[C@H](Cc2c(C3CCOCC3)n(-c3ccc(F)cc3)c3cc4cn[nH]c4cc23)CC1 [Compound 119] |
| < 1.16 | O=C(O)[C@H]1CC[C@H](c2c(C3CCOCC3)n(-c3ccc(F)cc3)c3cc4cn[nH]c4cc32)CC1 [Compound 120] |
| 1.16 to 3 | O=C(O)C1CC2(C1)CC(c1c(C3CCOCC3)n(-c3ccccc3)c3cc4cn[nH]c4cc13)C2 (stereo not drawn) [Compound 123, 6-(5-phenyl-6-tetrahydropyran-4-yl-1H-pyrrolo[2,3-f]indazol-7-yl)spiro[3.3]heptane-2-carboxylic Acid] |
| 1.16 to 3 | Cc1cc(F)ccc1-n1c(C2CCOCC2)c(CC2(C(=O)O)CC2)c2cc3[nH]ncc3cc21 [Compound 124, 1-[[5-(4-fluoro-2-methyl-phenyl)-6-tetrahydropyran-4-yl-1H-pyrrolo[2,3-f]indazol-7-yl]methyl]cyclopropanecarboxylic Acid] |
| > 3 | Cc1cc(-n2c(C3CCOCC3)c(CCC(=O)O)c3cc4[nH]nc(C)c4cc32)ccc1F [Compound 125, 3-[5-(4-fluoro-3-methyl-phenyl)-3-methyl-6-tetrahydropyran-4-yl-1H-pyrrolo[2,3-f]indazol-7-yl]propanoic Acid] |
| < 1.16 | O=C(O)C1CC2(C1)CC(c1c(C3CCOCC3)n(-c3ccc(F)c(F)c3)c3cc4c(Cl)n[nH]c4cc13)C2 (stereo not drawn) [Compound 130, 6-[3-chloro-5-(3,4-difluorophenyl)-6-tetrahydropyran-4-yl-1H-pyrrolo[2,3-f]indazol-7-yl]spiro[3.3]heptane-2-carboxylic Acid] |
| < 1.16 | Cc1c2[nH]ncc2cc2c1c(C1CC3(CC(C(=O)O)C3)C1)c(C1CCOCC1)n2-c1ccc(F)c(F)c1 (stereo not drawn) [Compound 131, 6-[5-(3,4-difluorophenyl)-8-methyl-6-tetrahydropyran-4-yl-1H-pyrrolo[2,3-f]indazol-7-yl]spiro[3.3]heptane-2-carboxylic acid] |
| < 1.16 | Cc1c2[nH]ncc2cc2c1c(C1=CC3(C1)CC(C(=O)O)C3)c(C1CCOCC1)n2-c1ccc(F)c(F)c1 (stereo not drawn) [Compound 132, 2-[5-(3,4-difluorophenyl)-8-methyl-6-tetrahydropyran-4-yl-1H-pyrrolo[2,3-f]indazol-7-yl]spiro[3.3]hept-2-ene-6-carboxylic Acid] |
| < 1.16 | N#Cc1c2[nH]ncc2cc2c1c(C1CC3(CC(C(=O)O)C3)C1)c(C1CCOCC1)n2-c1ccc(F)c(F)c1 (stereo not drawn) [Compound 133, 6-[8-cyano-5-(3,4-difluorophenyl)-6-tetrahydropyran-4-yl-1H-pyrrolo[2,3-f]indazol-7-yl]spiro[3.3]heptane-2-carboxylic acid] |
| < 1.16 | O=C(O)C1CC2(C1)CC(c1c(C3CCOCC3)n(-c3ccc(F)c(F)c3)c3cc4cn[nH]c4c(Br)c13)C2 (stereo not drawn) [Compound 134, 6-[8-bromo-5-(3,4-difluorophenyl)-6-tetrahydropyran-4-yl-1H-pyrrolo[2,3-f]indazol-7-yl]spiro[3.3]heptane-2-carboxylic Acid] |
| > 3 | Cc1cc(-n2c(C3(C)COC3)cc3cc4[nH]ncc4cc32)ccc1F [Compound 138, 5-(4-fluoro-3-methyl-phenyl)-6-(3-methyloxetan-3-yl)-1H-pyrrolo[2,3-f]indazole] |
| > 3 | Cc1cc(-n2c(C3(C)COC3)c(S(C)(=O)=O)c3cc4[nH]ncc4cc32)ccc1F [Compound 139, 5-(4-fluoro-3-methyl-phenyl)-6-(3-methyloxetan-3-yl)-7-methylsulfonyl-1H-pyrrolo[2,3-f]indazole] |
| > 3 | CC(C)(C)c1c(C#N)c2cc3[nH]ncc3cc2n1-c1ccc(F)cc1 [Compound 143, 6-tert-butyl-5-(4-fluorophenyl)-1H-pyrrolo[2,3-f]indazole-7-carbonitrile] |
| < 1.16 | Cn1cc(CCCc2c(C3CCOCC3)n(-c3ccc(F)cc3)c3cc4cn[nH]c4cc23)cn1 [Compound 144] |
| < 1.16 | Fc1ccc(-n2c(C3CCOCC3)c(CC3CCOCC3)c3cc4[nH]ncc4cc32)cc1 [Compound 145] |
| 1.16 to 3 | N#CCCc1c(C2CCOCC2)n(-c2ccc(F)cc2)c2cc3cn[nH]c3cc12 [Compound 146] |
| 1.16 to 3 | O=S1(=O)CCC(Cc2c(C3CCOCC3)n(-c3ccc(F)cc3)c3cc4cn[nH]c4cc23)CC1 [Compound 147] |
| 1.16 to 3 | N#CCCCc1c(C2CCOCC2)n(-c2ccc(F)cc2)c2cc3cn[nH]c3cc12 [Compound 148] |
| 1.16 to 3 | COCCc1c(C2CCOCC2)n(-c2ccc(F)cc2)c2cc3cn[nH]c3cc12 [Compound 149] |
| 1.16 to 3 | O=S1(=O)CCCN1CCCc1c(C2CCOCC2)n(-c2ccc(F)cc2)c2cc3cn[nH]c3cc12 [Compound 150] |
| 1.16 to 3 | CS(=O)(=O)CCc1c(C2CCOCC2)n(-c2ccc(F)cc2)c2cc3cn[nH]c3cc12 [Compound 151] |

| EC50 [µM] | Compound |
| --- | --- |
| 1.16 to 3 | O=C(OCc1ccccc1)N1CCC(Cc2c(C3CCOCC3)n(-c3ccc(F)cc3)c3cc4cn[nH]c4cc23)CC1 [Compound 152, Benzyl 4-[[5-(4-fluorophenyl)-6-tetrahydropyran-4-yl-1H-pyrrolo[2,3-f]indazol-7-yl]methyl]piperidine-1-carboxylate] |
| 1.16 to 3 | CC(=O)N1CCC(Cc2c(C3CCOCC3)n(-c3ccc(F)cc3)c3cc4cn[nH]c4cc23)CC1 [Compound 153, 1-[4-[[5-(4-fluorophenyl)-6-tetrahydropyran-4-yl-1H-pyrrolo[2,3-f]indazol-7-yl]methyl]-1-piperidyl]ethanone] |
| 1.16 to 3 | O=C(OCc1ccccc1)N1CCCC(Cc2c(C3CCOCC3)n(-c3ccc(F)cc3)c3cc4cn[nH]c4cc23)C1 (stereo not drawn) [Compound 154, benzyl 3-[[5-(4-fluorophenyl)-6-tetrahydropyran-4-yl-M-pyrrolo[2,3-f]indazol-7-yl]methyl]piperidine-1-carboxylate] |
| > 3 | NC(=O)N1CCCC(Cc2c(C3CCOCC3)n(-c3ccc(F)cc3)c3cc4cn[nH]c4cc23)C1 (stereo not drawn) [Compound 155, 3-[[5-(4-fluorophenyl)-6-tetrahydropyran-4-yl-1H-pyrrolo[2,3-f]indazol-7-yl]methyl]piperidine-1-carboxamide] |
| > 3 | CC(=O)NCCCc1c(C2CCOCC2)n(-c2ccc(F)cc2)c2cc3cn[nH]c3cc12 [Compound 156, N-[3-[5-(4-fluorophenyl)-6-tetrahydropyran-4-yl-1H-pyrrolo[2,3-f]indazol-7-yl]propyl]acetamide] |
| > 3 | NC(=O)NCCCc1c(C2CCOCC2)n(-c2ccc(F)cc2)c2cc3cn[nH]c3cc12 [Compound 157, 3-[5-(4-fluorophenyl)-6-tetrahydropyran-4-yl-1H-pyrrolo[2,3-f]indazol-7-yl]propylurea] |
| > 3 | CCS(=O)(=O)CCc1c(C2CCOCC2)n(-c2ccc(F)cc2)c2cc3cn[nH]c3cc12 [Compound 158, 7-(2-ethylsulfonylethyl)-5-(4-fluorophenyl)-6-tetrahydropyran-4-yl-1H-pyrrolo[2,3-f]indazole] |
| 1.16 to 3 | CNS(=O)(=O)CCc1c(C2CCOCC2)n(-c2ccc(F)cc2)c2cc3cn[nH]c3cc12 [Compound 159, 2-[5-(4-fluorophenyl)-6-tetrahydropyran-4-yl-1H-pyrrolo[2,3-f]indazol-7-yl]-N-methyl-ethanesulfonamide] |
| > 3 | NC(=O)[C@H]1C[C@@H](c2c(C3CCOCC3)n(-c3ccc(F)cc3)c3cc4cn[nH]c4cc32)C1 [Compound 160] |
| > 3 | Fc1ccc(-n2c(C3CCOCC3)c(CCCn3cncn3)c3cc4[nH]ncc4cc32)cc1 [Compound 164] |
| 1.16 to 3 | Fc1ccc(-n2c(C3CCOCC3)c(CCCn3ccnc3)c3cc4[nH]ncc4cc32)cc1 [Compound 165] |
| > 3 | NC(=O)CCc1c(C2CCOCC2)n(-c2ccc(F)cc2)c2cc3cn[nH]c3cc12 [Compound 166, 3-[5-(4-fluorophenyl)-6-tetrahydropyran-4-yl-1H-pyrrolo[2,3-f]indazol-7-yl]propanamide] |
| 1.16 to 3 | [2H]C(C(=O)O)C([2H])c1c(C(C)C)n(-c2ccc(F)cc2)c2cc3cn[nH]c3cc12 (stereo not drawn) [Compound 167, 2,3-dideuterio-3-[5-(4-fluorophenyl)-6-isopropyl-1H-pyrrolo[2,3-f]indazol-7-yl]propanoic Acid] |
| 1.16 to 3 | [2H]C(C(=O)O)C([2H])([2H])c1c(C(C)C)n(-c2ccc(F)cc2)c2cc3cn[nH]c3cc12 (stereo not drawn) [Compound 168, 2,3,3-trideuterio-3-[5-(4-fluorophenyl)-6-isopropyl-1H-pyrrolo[2,3-f]indazol-7-yl]propanoic acid] |
| 1.16 to 3 | [2H]C([2H])(CC(=O)O)c1c(C(C)C)n(-c2ccc(F)cc2)c2cc3cn[nH]c3cc12 [Compound 169, 3,3-dideuterio-3-[5-(4-fluorophenyl)-6-isopropyl-1H-pyrrolo[2,3-f]indazol-7-yl]propanoic Acid] |
| 1.16 to 3 | [2H]C([2H])(Cc1c(C(C)C)n(-c2ccc(F)cc2)c2cc3cn[nH]c3cc12)C(=O)O [Compound 170, 2,2-dideuterio-3-[5-(4-fluorophenyl)-6-isopropyl-1H-pyrrolo[2,3-f]indazol-7-yl]propanoic Acid] |
| < 1.16 | [2H]C([2H])(C(=O)O)C([2H])([2H])c1c(C(C)C)n(-c2ccc(F)cc2)c2cc3cn[nH]c3cc12 [Compound 171, 2,2,3,3-tetradeuterio-3-[5-(4-fluorophenyl)-6-isopropyl-1H-pyrrolo[2,3-f]indazol-7-yl]propanoic Acid] |
| > 3 | CC(C)c1c(C2CNC2)c2cc3[nH]ncc3cc2n1-c1ccc(F)cc1 [Compound 174, 7-(azetidin-3-yl)-5-(4-fluorophenyl)-6-isopropyl-1H-pyrrolo[2,3-f]indazole] |
| 1.16 to 3 | COCC(C)(C)c1c(CC2CC(C(=O)O)C2)c2cc3[nH]ncc3cc2n1-c1ccc(F)cc1 (stereo not drawn) [Compound 175] |
| 1.16 to 3 | COCC(C)(C)c1c(CCC(=O)O)c2cc3[nH]ncc3cc2n1-c1ccc(F)cc1 [Compound 177] |
| 1.16 to 3 | COCCc1c(C(C)(C)COC)n(-c2ccc(F)cc2)c2cc3cn[nH]c3cc12 [Compound 178] |
